According to patent publication US7550480B2, “Compounds” (SmithKline Beecham Corporation, priority 2003, dated 2009):
pIC50, pKi: −log10 of the molar value. Values joined by “and” are separate entries in the source; they are usually repeats but may differ in a detail not shown here. Equal entries are not always repeated.

Columns and labels:
CSBP/p38 [1] = molecular target: T1, CSBP/p38 (Homo sapiens, UniProt Q16539); assay: Fluorescence Anisotropy Kinase Binding Assay; details: pKi is the negative log of the Ki; p38 enzyme 12 nM, fluorescent ligand 5 nM
Protocol: The concentration of kinase enzyme should preferably be ≧1×Kf. The concentration of fluorescent ligand required will depend on the instrumentation used, and the fluorescent and physicochemical properties. The concentration used must be lower than the concentration of kinase enzyme, and preferably less than half the kinase enzyme concentration.
All components dissolved in Buffer of final composition 62.5 mM HEPES, pH 7.5, 1.25 mM CHAPS, 1.25 mM […], 12.5 mM MgCl2 3.3% DMSO.
p38 Enzyme concentration: 12 nM
Fluorescent ligand concentration: 5 nM
Test compound concentration: 0.1 nM-100 uM
Components incubated in 30 ul final volume in NUNC 384 well black microtitre plate until equilibrium reached (5-30 mins)
Fluorescence anisotropy read in LJL Acquest.
Definitions: Ki=dissociation constant for inhibitor binding
• Kf=dissociation constant for fluorescent ligand binding The fluorescent ligand is the following compound:
[drawing 13] which is derived from 5-[2-(4-aminomethylphenyl)-5-pyridin-4-yl-1H-imidazol-4-yl]-2-chlorophenol and rhodamine green.

CSBP/p38 [2] = molecular target: T1, CSBP/p38; assay: CSBP/p38 Kinase Assay (32P transfer to EGFR-derived T669 peptide); format: biochemical; design: made in house; host or cells: yeast; details: for pIC50: 0.17 mM ATP, 0.67 mM T669 peptide, 2-4 nM yeast-expressed activated p38, 25 min at 37° C.; for active as inhibitors of the CSBP kinase: statement in words, assay not given
Protocol: This assay measures the CSBP/p38-catalyzed transfer of ^32P from [a-^32P]ATP to threonine residue in an epidermal growth factor receptor (EGFR)-derived peptide (T669) with the following sequence: […] (SEQ ID 1) (residues 661-681). (See Gallagher et al., “Regulation of Stress Induced Cytokine Production by Pyridinyl Imidazoles: Inhibition of CSBP Kinase”, BioOrganic & Medicinal Chemistry, 1997, 5, 49-64).
Reactions are carried in round bottom 96 well plate (from Corning) in a […] volume. […] Filters are washed with 75 mM phosphoric acids, and incorporated 32P was quantified using beta scintillation counter. Under these conditions, the specific activity of p38 will be determined and is generally 400-450 pmol/pmol enzyme, and the activity being linear for up to 2 hours of incubation. The kinase activity values are obtained after subtracting values generated in the absence of substrate which were 10-15% of total values.

T1 sequence (Q16539 whole entry): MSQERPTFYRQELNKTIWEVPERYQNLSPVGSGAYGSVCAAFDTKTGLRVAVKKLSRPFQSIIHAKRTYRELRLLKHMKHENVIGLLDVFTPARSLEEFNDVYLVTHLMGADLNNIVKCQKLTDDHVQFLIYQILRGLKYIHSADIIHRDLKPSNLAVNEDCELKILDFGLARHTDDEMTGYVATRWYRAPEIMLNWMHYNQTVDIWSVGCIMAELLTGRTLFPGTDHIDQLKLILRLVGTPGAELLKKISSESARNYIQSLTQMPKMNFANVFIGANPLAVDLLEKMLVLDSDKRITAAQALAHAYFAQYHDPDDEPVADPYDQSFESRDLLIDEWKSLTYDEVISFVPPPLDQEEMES

Compound | pKi (CSBP/p38 [1]) | pIC50 (CSBP/p38 [2]) | active as inhibitors of the CSBP kinase (CSBP/p38 [2])
COc1cc2c(ccc(=O)n2-c2ccccc2Cl)c(-c2ccccc2Cl)c1Br (single isomer, unassigned) [Example 17, 6-bromo-1,5-bis(2-chlorophenyl)-7-(methyloxy)-2(1H)-quinolinone] | 7.70 and 7.90 |  | 
O=c1ccc2c(-c3ccccc3)nccc2n1Cc1ccccc1 [Example 9, 1-Benzyl-5-phenyl-1H-[1,6]naphthyridin-2-one] |  | 7.22 | 
O=c1ccc2c(-c3ccccc3)nccc2n1-c1ccccc1 [Example 10, 1,5-Diphenyl-1H-[1,6]naphthyridin-2-one] |  | 6.70 | 
Cn1c(=O)ccc2c(-c3ccccc3)nccc21 [Example 11, 1-Methyl-5-phenyl-1H-[1,6]naphthyridin-2-one] |  | 5.30 | active
O=c1ccc2c(-c3ccccc3)nccc2[nH]1 [Example 12, 5-Phenyl-1H-[1,6]naphthyridin-2-one] |  | 4.87 | active
